The values that follow come from paper PMC8953385, “2-Styrylchromones: Cytotoxicity and Modulation of Human Neutrophils’ Oxidative Burst” (Pharmaceuticals, 2022).

Data set [1] relates to human neutrophils’ oxidative burst. The experiment in a line: Neutrophils’ oxidative burst, PMA stimulation, luminol chemiluminescence. The class given is cell-based. Particulars: for inhibition at 25 µM: 25.00 µM (highest tested concentration); for IC50: PMA 160.00 nM, luminol 500.00 μM, mean ± SEM, read-out: IC50, inhibition of human neutrophils’ oxidative burst; for inhibition at 50 µM: 50.00 µM (highest tested concentration); for Times less active than C8 (oxidative burst): comparison of IC50 values with C8. The source says:
(§1) Following the Declaration of Helsinki and the approval of patient-related procedures and protocols by the Ethics Committee of Centro Hospitalar do Porto, Portugal, venous blood was collected from healthy human blood donors, after informed consent. The blood was stored into K3EDTA vacuum tubes after antecubital venipuncture of the donors. In order to obtain the isolated neutrophils, the density gradient centrifugation method was applied, as previously reported, with modifications. In brief, in a 15 mL polypropylene tube, 3 mL of histopaque 1119 were added followed by 3 mL of histopaque 1077 and finally, 4.5 mL of the collected blood were slowly added. Each tube was centrifuged at 900× g at 20 °C for 30 min, with a medium acceleration and deceleration speed. Following centrifugation, the neutrophils’ portion was harvested, and PBS was added to double the volume. The neutrophils’ suspension was then centrifuged at 850× g at 4 °C for 5 min, using a maximum acceleration and deceleration speed. The supernatant was discarded, and the neutrophils’ pellet was resuspended in PBS and afterward milli-Q water was added to lyse the residual erythrocytes. The tube was gently homogenized and after a few minutes, 3% NaCl was added to restore isotony, and then centrifuged again at 850× g at 4 °C for 5 min, using a maximum acceleration and deceleration speed. The supernatant was discarded, and a neutrophils’ pellet was obtained. After isolation, the neutrophils’ pellet was resuspended in the incubation media, tris-glucose buffer (25 mM Trizma® base, 5.5 mM D-glucose, 140 mM NaCl, 1.26 mM CaCl2, 0.81 mM MgSO4, 5.37 mM KCl, pH = 7.4). Neutrophils’ suspension was kept on ice, under soft shaking, until use. The trypan blue exclusion method was used to determine cells’ yield and viability.
The effect of 2-SC on the modulation of neutrophils’ oxidative burst was assessed after the stimulation of these cells with PMA by monitoring the oxidation of chemiluminescent probe, luminol, by the generated reactive species (Figure S2), according to a previously described methodology. Briefly, neutrophils (1 × 10^6 cells/mL) were pre-incubated with luminol (500.00 μM), and 2-SC (0.00–100.00 μM) or DMSO, at the final concentrations indicated. After this pre-incubation, at 37 °C for 5 min, PMA (160.00 nM) was added, and in turn, neutrophils’ stimulation was initiated. Kinetic readings were immediately initiated and followed for 40 min, at 37 °C, in a microplate reader. The arbitrary chemiluminescence value was taken at the peak of the curve, and the results were expressed as the inhibition percentage of luminol oxidation.
GraphPad Prism 6 software was used to plot the curves of percentage of inhibition versus concentrations of compound, from which the concentration that produces 50% of inhibition (IC50) was determined. GraphPad Prism 6 software was also used to perform all statistical analyses. […] In all cases, p-values < 0.05 were considered statistically significant. The results are expressed as mean ± standard error of the mean (SEM).

Data set [2] in a line: Annexin V/PI flow cytometric assay of neutrophils’ viability. The class given is cell-based, human. Particulars: human, isolated human neutrophils, pH 7.4, representative plot, Figure 4, read-out: Viable cells [annexin V (−)/PI (−)], lower left quadrant.
Excerpt: as §1
(§2) The effect of the studied 2-SC on neutrophils’ viability was assessed by flow cytometry, after simultaneous staining with FITC Annexin V and propidium iodide (PI) (Figure S1), as previously reported by our research group, with modifications. After isolation, neutrophils (1 × 10^6 cells/mL) were incubated with 2-SC (up to 100.00 μM) or DMSO for 40 min, at 37 °C, in a 48-well plate. At the end of incubation, the content of each well was transferred to conical microtubes and centrifuged at 400× g at 20 °C for 5 min. After discarding the supernatant, the neutrophils’ pellet was resuspended in PBS and centrifuged under the previous conditions. Once the supernatant was removed, the pellet was resuspended in 10× diluted binding buffer, and then PI and annexin V were added. This mixture was incubated in the dark at room temperature for 15 min, and finally, 10× diluted binding buffer was added. In a flow cytometer, the fluorescence signal, of at least 10,000 cells/sample, were collected in logarithmic mode and followed in channels 1 and 3. The green fluorescence corresponding to annexin V FITC was accompanied in channel 1 and plotted as a histogram of FL1 staining, whereas the fluorescence corresponding to PI was monitored in channel 3 and plotted in the same histogram but as FL3 staining. The collected data were analyzed with the BD Accuri™ C6 software. The data analysis was restricted to the neutrophils’ population. Thus, according to the light-scattering properties of neutrophils (in a forward versus side scatter plot), a polygon gate was drawn, where debris and other blood cells were excluded. The effect of 2-SC on neutrophils’ viability was expressed as a relative percentage of apoptotic and/or necrotic cells when compared to the control (without 2-SC).

A further data set has as its system human neutrophils. The data set is described as above. The format is cell-based. Particulars: for Higher 2-SC concentration that did not affect human neutrophils’ viability: annexin V/PI assay, 40 min incubation at 37 °C.
Excerpt: as §1, §2

For data set [3] the following is noted: O2•−, cited from earlier work.
Where [4] appears, read: Homo sapiens, Neutrophil, read-out: Inhibitory activity (% ± SEM), neutrophils’ oxidative burst.

As for `O=c1cc(/C=C/c2ccccc2)oc2cc(O)ccc12` [A3], the inhibition at 75 µM in data set [1] (Homo sapiens, Neutrophil, 75.00 µM (highest tested concentration), read-out: Inhibitory activity (% ± SEM), neutrophils’ oxidative burst) stood at 53 ± 4%. The viability at 40 min, 75 µM in data set [2] (75.00 μM) is 84.3%. Also, the “Effect on human neutrophils’ viability” value in the data set with human neutrophils (75.00 μM) is listed as “showed no effect on human neutrophils’ viability”. Also, the “Higher 2-SC concentration that did not affect human neutrophils’ viability” value in the data set on human neutrophils was found to be 75.00 µM.
As to `O=c1cc(/C=C/c2ccccc2)oc2cc(O)cc(O)c12` [A4], the inhibition at 25 µM in data set [1] (setting [4]) is less than 30%. For the same compound, in data set [2] (25.00 μM), the viability at 40 min, 25 µM stood at 88.4%. Moreover, in data set [2] (50.00 μM), the viability at 40 min, 50 µM turned out to be 63.8%. Moreover, in the data set on human neutrophils (50.00 μM), the “Effect on total neutrophils’ population percentage” value is on record as “significantly affected the total neutrophils’ population percentage” and the “Induction of late apoptosis” value is reported as “induced late apoptosis”. Besides, the “Higher 2-SC concentration that did not affect human neutrophils’ viability” value in the data set with human neutrophils came out at 25.00 µM.
Consider `O=c1cc(/C=C/c2ccc(O)cc2)oc2cccc(O)c12` [B2], for which the “Scavenging of reactive species” value in data set [3] (H2O2, HOCl, 1O2, •NO, ONOO−) was “much less active or inactive”. The “Higher 2-SC concentration that did not affect human neutrophils’ viability” value with human neutrophils worked out at 6.25 µM.
For `O=c1cc(/C=C/c2ccc(O)c(O)c2)oc2cc(O)cc(O)c12` [B9], the IC50 in data set [1] (Homo sapiens, Neutrophil) came out at 800 ± 100 nM. In addition, the “Higher 2-SC concentration that did not affect human neutrophils’ viability” value with human neutrophils turned out to be 12.50 µM.
For `COc1ccc2c(=O)cc(/C=C/c3ccc(O)c(O)c3)oc2c1` [B10], in that order: 1000 ± 100 nM and 6.25 µM.
The matching figures for `COc1cc(OC)c2c(=O)cc(/C=C/c3ccc(O)c(O)c3)oc2c1` [B11]: 800 ± 100 nM and 12.50 µM.
Take `O=c1cc(/C=C/c2ccc(O)c(O)c2)oc2c(O)c(O)ccc12` [B12]: the half-maximal inhibitory concentration (IC50) in data set [1] (Homo sapiens, Neutrophil) worked out at 900 ± 300 nM. The “Higher 2-SC concentration that did not affect human neutrophils’ viability” value with human neutrophils was 12.50 µM.
As for `COc1ccc2c(=O)cc(/C=C/c3ccc(O)c(O)c3)oc2c1OC` [B13], the IC50 in data set [1] (Homo sapiens, Neutrophil) stood at 1000 ± 200 nM. Moreover, in the data set with human neutrophils, the “Higher 2-SC concentration that did not affect human neutrophils’ viability” value stood at 12.50 µM.
As for `COc1ccc(/C=C/c2cc(=O)c3c(OC)cccc3o2)cc1OC` [C3], the inhibition at 50 µM in data set [1] (setting [4]) came out at 54 ± 4%. For the same compound, the “Higher 2-SC concentration that did not affect human neutrophils’ viability” value with human neutrophils came out at 50.00 µM.
Consider `COc1ccc2c(=O)cc(/C=C/c3ccc(OC)c(OC)c3)oc2c1` [C4], for which the 50% inhibitory concentration (IC50) in data set [1] (Homo sapiens, Neutrophil) was found to be 24200 ± 300 nM. In addition, the “Times less active than C8 (oxidative burst)” value in data set [1] is given as “about 14 times”. In addition, in the data set with human neutrophils, the “Higher 2-SC concentration that did not affect human neutrophils’ viability” value worked out at 37.50 µM.
Regarding `COc1cc(OC)c2c(=O)cc(/C=C/c3ccc(OC)c(OC)c3)oc2c1` [C5], the inhibition at 50 µM in data set [1] (setting [4]) came out at 54 ± 2%. Besides, in the data set on human neutrophils, the “Higher 2-SC concentration that did not affect human neutrophils’ viability” value was found to be 75.00 µM.
As to `COc1ccc(/C=C/c2cc(=O)c3ccc(OC)c(OC)c3o2)cc1OC` [C6], in data set [1] (Homo sapiens, Neutrophil), the 50% inhibitory concentration (IC50) was determined as 20000 ± 2000 nM. In data set [1], the “Times less active than C8 (oxidative burst)” value is on record as approximately 17 times. For the same compound, the “Higher 2-SC concentration that did not affect human neutrophils’ viability” value in the data set on human neutrophils came out at 37.50 µM.
With `COc1ccc(/C=C/c2cc(=O)c3ccc(OCc4ccccc4)c(OCc4ccccc4)c3o2)cc1OC` [C7], the inhibition at 25 µM in data set [1] (setting [4]) is less than 30%. The “Higher 2-SC concentration that did not affect human neutrophils’ viability” value in the data set with human neutrophils came out at 25.00 µM.
Consider `COc1ccc(/C=C/c2cc(=O)c3ccc(O)c(O)c3o2)cc1OC` [C8], for which the IC50 in data set [1] (Homo sapiens, Neutrophil) was found to be 1400 ± 200 nM. The “Scavenging activity of reactive species” value in data set [3] (1O2, •NO and ONOO−) is on record as “good scavenging activity”. Moreover, the “Higher 2-SC concentration that did not affect human neutrophils’ viability” value with human neutrophils amounted to 6.25 µM.
On to `O=c1cc(/C=C/c2ccc(Cl)c(Cl)c2)oc2cccc(O)c12` [G3], for which, in data set [1] (setting [4]), the inhibition at 25 µM was less than 30%. Besides, the “Higher 2-SC concentration that did not affect human neutrophils’ viability” value in the data set on human neutrophils stood at 25.00 µM.
Turning to `O=c1cc(/C=C/c2c(Cl)cccc2Cl)oc2cccc(O)c12` [G4], the inhibition at 25 µM in data set [1] (setting [4]) is less than 30%. Also, the “Higher 2-SC concentration that did not affect human neutrophils’ viability” value with human neutrophils worked out at 25.00 µM.
With `COc1cc(OC)c2c(=O)c(Br)c(/C=C/c3ccccc3)oc2c1` [H2], in data set [1] (setting [4]), the inhibition at 50 µM was less than 30%. For the same compound, in the data set with human neutrophils, the “Higher 2-SC concentration that did not affect human neutrophils’ viability” value amounted to 50.00 µM.
